Laboratory results: PubChem BioAssay AID256 (DTP/NCI, 2004)
Several values for one entry are separate records, joined by “and”; a condition that tells them apart may be missing. Identical values can stand only once. Toxic doses and inconclusive results are not listed.

Test system: CD2F1 mice, L1210 leukemia ip, survival T/C
Experiment: NCI In Vivo Anticancer Drug Screen. Data for tumor model L1210 Leukemia (intraperitoneal) in CD2F1 (CDF1) mice
Conditions: higher = longer survival
Method in brief: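 Activity against a transplanted murine tumor was judged by comparing the compound group with a vehicle group. The outcome in the treated animals was divided by that in the controls.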

[1] = endpoint: mean survival time, dose: 12.5 mg/kg/injection, schedule: Q01DX009 (ip), vehicle: saline with Tween-80
[2] = endpoint: mean survival time, dose: 25.0 mg/kg/injection, schedule: Q01DX009 (ip), vehicle: saline with Tween-80
[3] = endpoint: mean survival time, dose: 50.0 mg/kg/injection, schedule: Q01DX009 (ip), vehicle: saline with Tween-80
[4] = endpoint: mean survival time, dose: 100.0 mg/kg/injection, schedule: Q04DX003 (ip), vehicle: saline with Tween-80
[5] = endpoint: mean survival time, dose: 200.0 mg/kg/injection, schedule: Q04DX003 (ip), vehicle: saline with Tween-80
[6] = endpoint: mean survival time, dose: 400.0 mg/kg/injection, schedule: Q04DX003 (ip), vehicle: saline with Tween-80
[7] = endpoint: mean survival time, dose: 100.0 mg/kg/injection, schedule: Q01DX001 (ip), vehicle: saline with Tween-80
[8] = endpoint: mean survival time, dose: 100.0 mg/kg/injection, schedule: Q04DX002 (ip), vehicle: saline with Tween-80
[9] = endpoint: mean survival time, dose: 200.0 mg/kg/injection, schedule: Q01DX001 (ip), vehicle: saline with Tween-80
[10] = endpoint: mean survival time, dose: 200.0 mg/kg/injection, schedule: Q04DX002 (ip), vehicle: saline with Tween-80
[11] = endpoint: mean survival time, dose: 400.0 mg/kg/injection, schedule: Q01DX001 (ip), vehicle: saline with Tween-80
[12] = endpoint: mean survival time, dose: 400.0 mg/kg/injection, schedule: Q04DX002 (ip), vehicle: saline with Tween-80
[13] = endpoint: mean survival time, dose: 100.0 mg/kg/injection, schedule: Q04DX003 (ip), vehicle: saline
[14] = endpoint: mean survival time, dose: 100.0 mg/kg/injection, schedule: Q01DX009 (ip), vehicle: saline with Tween-80

With `CC(=O)C1CCC2C3CC=C4CC(n5cc(C)c(=O)[nH]c5=O)CCC4(C)C3CCC12C` (configuration not stated) the T/C (endpoint: mean survival time, dose: 12.5 mg/kg/injection, schedule: Q04DX003 (ip), vehicle: Klucel (hydroxypropylcellulose) (HPC)) was 90 % of control, the T/C (endpoint: mean survival time, dose: 25.0 mg/kg/injection, schedule: Q01DX001 (ip), vehicle: Klucel (hydroxypropylcellulose) (HPC)) was 95 % of control and the T/C (endpoint: mean survival time, dose: 25.0 mg/kg/injection, schedule: Q04DX003 (ip), vehicle: Klucel (hydroxypropylcellulose) (HPC)) was 96 % of control. For the same compound, the T/C (endpoint: mean survival time, dose: 50.0 mg/kg/injection, schedule: Q01DX001 (ip), vehicle: Klucel (hydroxypropylcellulose) (HPC)) was 100 % of control, the T/C (endpoint: mean survival time, dose: 50.0 mg/kg/injection, schedule: Q04DX003 (ip), vehicle: Klucel (hydroxypropylcellulose) (HPC)) was 94 % of control and the T/C (endpoint: mean survival time, dose: 100.0 mg/kg/injection, schedule: Q01DX001 (ip), vehicle: Klucel (hydroxypropylcellulose) (HPC)) was 88 % of control. The T/C (endpoint: mean survival time, dose: 100.0 mg/kg/injection, schedule: Q04DX003 (ip), vehicle: Klucel (hydroxypropylcellulose) (HPC)) was 100 % of control, the T/C (endpoint: mean survival time, dose: 200.0 mg/kg/injection, schedule: Q01DX001 (ip), vehicle: Klucel (hydroxypropylcellulose) (HPC)) was 91 % of control and the T/C (endpoint: mean survival time, dose: 200.0 mg/kg/injection, schedule: Q04DX003 (ip), vehicle: Klucel (hydroxypropylcellulose) (HPC)) was 102 % of control. For the same compound, the T/C (endpoint: mean survival time, dose: 400.0 mg/kg/injection, schedule: Q01DX001 (ip), vehicle: Klucel (hydroxypropylcellulose) (HPC)) was 95 % of control.
In the case of `COc1ccc(SSc2ccc(OC)cc2)cc1`, the T/C (endpoint: mean survival time, dose: 100.0 mg/kg/injection, schedule: Q01DX001 (ip), vehicle: saline) is reported as 100 % of control, the T/C (endpoint: mean survival time, dose: 200.0 mg/kg/injection, schedule: Q01DX001 (ip), vehicle: saline) is reported as 103 % of control and the T/C (endpoint: mean survival time, dose: 400.0 mg/kg/injection, schedule: Q01DX001 (ip), vehicle: saline) is reported as 97 % of control.
With `CN(C)N=Nc1c(F)cccc1F` the T/C (endpoint: mean survival time, dose: 6.25 mg/kg/injection, schedule: Q01DX009 (ip), vehicle: other) was 98 % of control, the T/C (endpoint: mean survival time, dose: 12.5 mg/kg/injection, schedule: Q01DX009 (ip), vehicle: other) was 113 % of control and 93 % of control and the T/C [1] was 98 % of control. For the same compound, the T/C (endpoint: mean survival time, dose: 25.0 mg/kg/injection, schedule: Q01DX009 (ip), vehicle: other) was 117 % of control and 100 % of control, the T/C [2] was 106 % of control and the T/C (endpoint: mean survival time, dose: 50.0 mg/kg/injection, schedule: Q01DX009 (ip), vehicle: other) was 91 % of control. The T/C [3] was 120 % of control and the T/C (endpoint: mean survival time, dose: 100.0 mg/kg/injection, schedule: Q01DX009 (ip), vehicle: other) was 102 % of control and 104 % of control.
For `OCC1OC(n2cnc3c(N4CCCC4)ncnc32)C(O)C1O` (configuration not stated), the T/C (endpoint: mean survival time, dose: 12.5 mg/kg/injection, schedule: Q01DX005 (ip), vehicle: other) was 101 % of control, the T/C (endpoint: mean survival time, dose: 25.0 mg/kg/injection, schedule: Q01DX005 (ip), vehicle: other) was 101 % of control and the T/C (endpoint: mean survival time, dose: 50.0 mg/kg/injection, schedule: Q01DX005 (ip), vehicle: other) was 108 % of control. The T/C (endpoint: mean survival time, dose: 100.0 mg/kg/injection, schedule: Q01DX005 (ip), vehicle: other) was 106 % of control and the T/C (endpoint: mean survival time, dose: 200.0 mg/kg/injection, schedule: Q01DX005 (ip), vehicle: other) was 96 % of control.
In the case of `O=C(N/N=C\c1ccc([N+](=O)[O-])cc1)c1ccccc1`, the T/C [4] is reported as 94 % of control, the T/C [5] is reported as 94 % of control and the T/C [6] is reported as 92 % of control.
In the case of `C#CC(CC)OC(=O)c1cc([N+](=O)[O-])cc([N+](=O)[O-])c1` (configuration not stated), the T/C [7] is reported as 87 % of control, the T/C [8] is reported as 93 % of control and the T/C [9] is reported as 94 % of control. For the same compound, the T/C [10] was 93 % of control, the T/C [11] was 90 % of control and the T/C [12] was 93 % of control.
In the case of `CC(=O)Oc1cccc2c1C(=O)C1(O)C(C=O)=CC3OC(C)(C)OC2(C)C31` (configuration not stated), the T/C (endpoint: mean survival time, dose: 75.0 mg/kg/injection, schedule: Q01DX001 (ip), vehicle: other) is reported as 102 % of control, the T/C (endpoint: mean survival time, dose: 150.0 mg/kg/injection, schedule: Q01DX001 (ip), vehicle: other) is reported as 108 % of control and the T/C (endpoint: mean survival time, dose: 300.0 mg/kg/injection, schedule: Q01DX001 (ip), vehicle: other) is reported as 103 % of control.
For `CC1(C)CC(=O)NC1=O`, the T/C (endpoint: mean survival time, dose: 100.0 mg/kg/injection, schedule: Q01DX009 (ip), vehicle: saline) was 100 % of control, the T/C (endpoint: mean survival time, dose: 200.0 mg/kg/injection, schedule: Q01DX009 (ip), vehicle: saline) was 102 % of control and the T/C (endpoint: mean survival time, dose: 400.0 mg/kg/injection, schedule: Q01DX009 (ip), vehicle: saline) was 94 % of control.
With `COc1ccc(C[C@H](N)C(=O)NC2C(CO)OC(n3cnc4c(N(C)C)ncnc43)C2O)cc1` (some centres not stated) the T/C (endpoint: median survival time, dose: 25.0 mg/kg/injection, schedule: Q01DX005 (ip), vehicle: water) was 104 % of control, the T/C (endpoint: median survival time, dose: 50.0 mg/kg/injection, schedule: Q01DX005 (ip), vehicle: water) was 111 % of control and the T/C (endpoint: median survival time, dose: 100.0 mg/kg/injection, schedule: Q01DX005 (ip), vehicle: water) was 100 % of control.
With `NNC(=O)c1ccc(O)cc1` the T/C [7] was 90 % of control, the T/C [9] was 94 % of control and the T/C [11] was 96 % of control.
In the case of `CS(=O)(=O)c1ccnc2ccccc12`, the T/C [13] is reported as 98 % of control, the T/C (endpoint: mean survival time, dose: 200.0 mg/kg/injection, schedule: Q04DX003 (ip), vehicle: saline) is reported as 92 % of control and the T/C (endpoint: mean survival time, dose: 400.0 mg/kg/injection, schedule: Q04DX003 (ip), vehicle: saline) is reported as 95 % of control.
For `O=C(O)CCCCCCCCC1CC(F)(F)C(F)(F)S1` (configuration not stated), the T/C [14] was 98 % of control, the T/C (endpoint: mean survival time, dose: 200.0 mg/kg/injection, schedule: Q01DX009 (ip), vehicle: saline with Tween-80) was 92 % of control and the T/C (endpoint: mean survival time, dose: 400.0 mg/kg/injection, schedule: Q01DX009 (ip), vehicle: saline with Tween-80) was 95 % of control.
`Cc1ccc([N+](=O)[O-])cc1NC(=O)Nc1onc(C)c1C` was tested, and the T/C (endpoint: mean survival time, dose: 12.5 mg/kg/injection, schedule: Q01DX009 (ip), vehicle: Klucel (hydroxypropylcellulose) (HPC)) was 89 % of control and the T/C (endpoint: mean survival time, dose: 25.0 mg/kg/injection, schedule: Q01DX009 (ip), vehicle: Klucel (hydroxypropylcellulose) (HPC)) was 95 % of control.
In the case of `O=C1C=CC(=O)C1=Cc1ccc(O)cc1`, the T/C (endpoint: mean survival time, dose: 5.0 mg/kg/injection, schedule: Q04DX002 (ip), vehicle: saline with Tween-80) is reported as 100 % of control and the T/C (endpoint: mean survival time, dose: 10.0 mg/kg/injection, schedule: Q04DX002 (ip), vehicle: saline with Tween-80) is reported as 103 % of control.
`O=C(c1ccccc1)C(O)c1ccccc1` (configuration not stated) was tested, and the T/C [4] was 90 % of control, the T/C [5] was 96 % of control and the T/C [6] was 97 % of control.
For `C#CCNC1=C(C)C(=O)C2=C(C1=O)[C@H](COC(N)=O)[C@]1(OC)[C@@H]3N[C@@H]3CN21`, the T/C (endpoint: mean survival time, dose: 1.5 mg/kg/injection, schedule: Q01DX001 (ip), vehicle: distilled water + Tween-80) was 112 % of control, the T/C (endpoint: mean survival time, dose: 3.0 mg/kg/injection, schedule: Q01DX001 (ip), vehicle: distilled water + Tween-80) was 120 % of control and 102 % of control and the T/C (endpoint: mean survival time, dose: 6.0 mg/kg/injection, schedule: Q01DX001 (ip), vehicle: distilled water + Tween-80) was 110 % of control. For the same compound, the T/C (endpoint: mean survival time, dose: 24.0 mg/kg/injection, schedule: Q01DX001 (ip), vehicle: distilled water + Tween-80) was 186 % of control, the T/C (endpoint: mean survival time, dose: 48.0 mg/kg/injection, schedule: Q01DX001 (ip), vehicle: distilled water + Tween-80) was 87 % of control and the T/C (endpoint: median survival time, dose: 6.0 mg/kg/injection, schedule: Q01DX009 (ip), vehicle: distilled water + Tween-80) was 166 % of control. The T/C (endpoint: median survival time, dose: 6.25 mg/kg/injection, schedule: Q01DX009 (ip), vehicle: distilled water + Tween-80) was 178 % of control, the T/C (endpoint: median survival time, dose: 12.5 mg/kg/injection, schedule: Q01DX009 (ip), vehicle: distilled water + Tween-80) was 101 % of control and the T/C (endpoint: median survival time, dose: 25.0 mg/kg/injection, schedule: Q01DX009 (ip), vehicle: distilled water + Tween-80) was 92 % of control.
`O=C(O)/C(=C(/c1ccccc1)c1ccc(Cl)cc1)c1ccccc1` was tested, and the T/C [4] was 98 % of control, the T/C [5] was 96 % of control and the T/C [6] was 98 % of control.
With `COc1cc2c(cc1OC)C1=NN(c3ccccc3)C(=O)C1CC2` (configuration not stated) the T/C [8] was 103 % of control, the T/C [10] was 95 % of control and the T/C [12] was 95 % of control.
In the case of `CN1CC=C(N2CCOCC2)CC1`, the T/C (endpoint: mean survival time, dose: 25.0 mg/kg/injection, schedule: Q04DX003 (ip), vehicle: saline) is reported as 109 % of control, the T/C (endpoint: mean survival time, dose: 50.0 mg/kg/injection, schedule: Q04DX003 (ip), vehicle: saline) is reported as 103 % of control and the T/C [13] is reported as 103 % of control and 109 % of control.
With `O=[N+]([O-])c1c(Br)sc(Br)c1[N+](=O)[O-]` the T/C [1] was 97 % of control, the T/C (endpoint: mean survival time, dose: 12.5 mg/kg/injection, schedule: Q04DX003 (ip), vehicle: saline with Tween-80) was 101 % of control and the T/C [2] was 88 % of control. The T/C (endpoint: mean survival time, dose: 25.0 mg/kg/injection, schedule: Q04DX003 (ip), vehicle: saline with Tween-80) was 103 % of control, the T/C [3] was 95 % of control and the T/C (endpoint: mean survival time, dose: 50.0 mg/kg/injection, schedule: Q04DX003 (ip), vehicle: saline with Tween-80) was 109 % of control.
With `Cc1cccc(C)c1NC(=S)NNC(=O)c1ccncc1` the T/C [2] was 101 % of control, the T/C [3] was 97 % of control and the T/C [14] was 92 % of control.
